The target in this experiment is TNFα trimer (Homo sapiens, UniProt P01375). Put plainly: TNFα FP Competitive Binding Assay. To be noted: fluorescence polarization competition; 20 nM TNFα trimer, 1 nM OregonGreen488 probe; read-out: TNF IC50 (TNFα FP binding assay IC50). An outline of the steps: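 Fluorescence polarization displacement: 20 nM TNFα trimer (60 nM protein) with 1 nM fluorescein-labelled bis-isoquinoline probe in HEPES/NaCl/EDTA/Triton X-100 buffer. 12-point 1:3 compound series, top final 338 μM (3.4% DMSO) or 100 μM (2.0% DMSO); 18-24 h at 37 °C, then 1 h rt before background-subtracted mP read; variable-slope curve fit.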
Chain of TNFα trimer (P01375 77-233 limits assumed): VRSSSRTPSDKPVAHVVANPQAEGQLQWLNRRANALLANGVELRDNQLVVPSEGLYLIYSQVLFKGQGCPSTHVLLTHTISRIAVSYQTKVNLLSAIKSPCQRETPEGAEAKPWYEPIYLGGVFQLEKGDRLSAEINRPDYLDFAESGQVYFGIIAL

A value given as a limit tells only on which side of the number the result lay.

`CCOC(=O)CNc1ncc(-c2ccc3nc4c(n3c2)C(c2ccccc2OC)CCC4)cn1` (stereo not shown) [Example 7, Ethyl 2-[[5-[9-(2-methoxyphenyl)-6,7,8,9-tetrahydropyrido[1,2-a]benzimidazol-2-yl]pyrimidin-2-yl]amino]acetate]: the IC50 is less than 1000 nM. On to `COc1ccccc1C1CCCc2nc3ccc(-c4cnc(NCC(=O)O)nc4)cn3c21` (stereo not shown) [Example 8, 2-((5-(9-(2-methoxyphenyl)-6,7,8,9-tetrahydrobenzo[4,5]imidazo[1,2-a]pyridin-2-yl)pyrimidin-2-yl)amino)acetic acid], for which the IC50 was in the range of 1000 to 10000 nM. In the case of `O=C1NCC2CN(c3ncc(-c4ccc5nc6n(c5c4)[C@@H](c4ccccc4)COC6)cn3)CCN12` (stereo partly drawn) [Example 9, 7-(5-((S)-4-Phenyl-3,4-dihydro-1H-benzo[4,5]imidazo[2,1-c][1,4]oxazin-7-yl)pyrimidin-2-yl)hexahydroimidazo[1,5-a]pyrazin-3(2H)-one], the IC50 was less than 1000 nM. In the case of `COc1ccccc1C1CCc2nc3ccc(-c4cnc(C(C)(C)O)nc4)cn3c21` (stereo not shown) [Example 10, 2-(5-(1-(2-Methoxyphenyl)-2,3-dihydro-1H-cyclopenenta[4,5]imidazo[1,2-a]pyridin-7-yl)pyrimidin-2-yl)propan-2-ol], the 50% inhibitory concentration (IC50) was less than 1000 nM.

For the compound `COc1ccccc1[C@@H]1CCc2nc3ccc(-c4cnc(C(C)(C)O)nc4)cn3c21` [Example 11, (S)-2-(5-(1-(2-Methoxyphenyl)-2,3-dihydro-1H-cyclopenta[4,5]imidazo[1,2-a]pyridin-7-yl)pyrimidin-2-yl)propan-2-ol], the IC50 is 10000 to 100000 nM. For the compound `COc1ccccc1[C@H]1CCc2nc3ccc(-c4cnc(C(C)(C)O)nc4)cn3c21` [Example 12, (R)-2-(5-(1-(2-methoxyphenyl)-2,3-dihydro-1H-cyclopenta[4,5]imidazo[1,2-a]pyridin-7-yl)pyrimidin-2-yl)propan-2-ol], the half-inhibitory concentration (IC50) is less than 1000 nM. Turning to `CC(C)(O)c1ncc(-c2ccc3nc4n(c3c2)[C@@H](c2ccccc2OC(F)F)COC4)cn1` [Example 13, (S)-2-(5-(4-(2-(Difluoromethoxy)phenyl)-3,4-dihydro-1H-benzo[4,5]imidazo[2,1-c][1,4]oxazin-7-yl)pyrimidin-2-yl)propan-2-ol], the IC50 is less than 1000 nM.

As for `COc1ccccc1C1=CCCc2nc3ccc(-c4cnc(N5CCOCC5)nc4)cn3c21` [Example 14, 4-(5-(9-(2-Methoxyphenyl)-6,7-dihydrobenzo[4,5]imidazo[1,2-a]pyridin-2-yl)pyrimidin-2-yl)morpholine], the IC50 lay within 10000 to 100000 nM. For `COc1ccccc1C1CCCc2nc3ccc(-c4cnc(N5CCOCC5)nc4)cn3c21` (stereo not shown) [Example 15, 4-(5-(9-(2-Methoxyphenyl)-6,7,8,9-tetrahydrobenzo[4,5]imidazo[1,2-a]pyridin-2-yl)pyrimidin-2-yl)morpholine] the value was less than 1000 nM; for `COc1ccccc1C1CCCc2nc3ccc(-c4cnc(C(C)(C)O)nc4)cn3c21` (stereo not shown) [Example 16, 2-(5-(9-(2-Methoxyphenyl)-6,7,8,9-tetrahydrobenzo[4,5]imidazo[1,2-a]pyridin-2-yl)pyrimidin-2-yl)propan-2-ol], less than 1000 nM; for `CC(C)(O)c1ncc(-c2ccc3nc4n(c3c2)C(C2CCCCC2)CC4)cn1` (stereo not shown) [Example 17, 2-(5-(1-Cyclohexyl-2,3-dihydro-H-benzo[d]pyrrolo[1,2-a]imidazol-7-yl)pyrimidin-2-yl)propan-2-ol], less than 1000 nM. On to `c1ccc(C2CCc3nc4ccc(N5CCN(c6ncccn6)CC5)nc4n32)cc1` (stereo not shown) [Example 18, 8-Phenyl-2-(4-(pyrimidin-2-yl)piperazin-1-yl)-7,8-dihydro-6H-pyrrolo[2′,1′:2,3]imidazo[4,5-b]pyridine], for which the IC50 lay within 1000 to 10000 nM. With `c1ccc(C2COCc3nc4ccc(-c5cnc(N6CCOCC6)nc5)cc4n32)cc1` (stereo not shown) [Example 19, 7-(2-Morpholinopyrimidin-5-yl)-4-phenyl-3,4-dihydro-H-benzo[4,5]imidazo[2,1-c][1,4]oxazine], the half-inhibitory concentration (IC50) is less than 1000 nM.

The record behind these values is patent US20180179198A1, “TRICYCLIC MODULATORS OF TNF SIGNALING” (AbbVie Inc., priority 2015, published 2018).
